Results published in US20170008888A1 (KYORIN PHARMACEUTICAL CO., LTD., priority 2014, published 2017).

Key:
[1] = biological target: T1, ACK (Homo sapiens, UniProt Q07912); assay: Probe-based (AX9989) kinase profiling in Jurkat lysate: ACK; assay type: binding; details: read-out: Kinase inhibition % at indicated screening concentration: ACK; for inhibition at 1 µM: screening concentration 1.0 μM; for inhibition at 0.1 µM: screening concentration 0.1 μM
T1 construct: screened for activity against several kinases in Jurkat cells; endogenous in cells; host or cells: Jurkat cell lysate
T1 sequence (Q07912 whole entry): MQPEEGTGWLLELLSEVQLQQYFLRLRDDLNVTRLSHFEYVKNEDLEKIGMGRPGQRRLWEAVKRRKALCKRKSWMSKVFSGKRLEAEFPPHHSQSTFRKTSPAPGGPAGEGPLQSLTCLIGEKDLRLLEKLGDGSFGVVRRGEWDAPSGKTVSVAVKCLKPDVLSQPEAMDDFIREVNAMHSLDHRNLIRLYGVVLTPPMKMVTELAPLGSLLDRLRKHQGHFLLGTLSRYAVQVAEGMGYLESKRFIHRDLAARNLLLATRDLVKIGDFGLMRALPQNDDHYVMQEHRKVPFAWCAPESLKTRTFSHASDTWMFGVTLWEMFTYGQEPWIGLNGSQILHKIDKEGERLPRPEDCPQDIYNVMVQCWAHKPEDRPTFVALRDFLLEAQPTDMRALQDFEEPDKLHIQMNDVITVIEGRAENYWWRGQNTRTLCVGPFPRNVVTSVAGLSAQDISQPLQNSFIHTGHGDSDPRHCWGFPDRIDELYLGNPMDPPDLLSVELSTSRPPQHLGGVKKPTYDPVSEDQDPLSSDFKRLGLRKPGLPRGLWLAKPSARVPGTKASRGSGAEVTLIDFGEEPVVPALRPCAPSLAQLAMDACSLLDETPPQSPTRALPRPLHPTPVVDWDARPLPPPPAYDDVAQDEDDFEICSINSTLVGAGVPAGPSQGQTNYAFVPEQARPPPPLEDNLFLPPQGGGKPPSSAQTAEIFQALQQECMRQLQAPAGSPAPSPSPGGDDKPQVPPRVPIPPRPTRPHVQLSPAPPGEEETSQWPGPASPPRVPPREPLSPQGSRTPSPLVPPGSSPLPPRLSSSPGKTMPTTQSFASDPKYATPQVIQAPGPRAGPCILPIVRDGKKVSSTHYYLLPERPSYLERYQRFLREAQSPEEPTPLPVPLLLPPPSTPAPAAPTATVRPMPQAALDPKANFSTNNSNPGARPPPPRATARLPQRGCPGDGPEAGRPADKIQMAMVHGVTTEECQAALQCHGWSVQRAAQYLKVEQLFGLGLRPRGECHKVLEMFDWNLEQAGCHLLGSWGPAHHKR
Method in brief: (§1)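 Jurkat lysate, HEPES pH 7.5 buffer + 20 mM MnCl2; cpd 15 min RT; AX9989 ATP probe 5 μM final, RT. Trypsin digest, streptavidin capture, LC/MS; % inhibition vs vehicle from labeled-peptide signal.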

[2] = biological target: T2, AurA (Homo sapiens, UniProt O14965); assay: Probe-based (AX9989) kinase profiling in Jurkat lysate: AurA; assay type: binding; details: read-out: Kinase inhibition % at indicated screening concentration: AurA; for inhibition at 1 µM: screening concentration 1.0 μM; for inhibition at 0.1 µM: screening concentration 0.1 μM
T2 construct: screened for activity against several kinases in Jurkat cells; endogenous in cells; host or cells: Jurkat cell lysate
T2 sequence (O14965 1-403): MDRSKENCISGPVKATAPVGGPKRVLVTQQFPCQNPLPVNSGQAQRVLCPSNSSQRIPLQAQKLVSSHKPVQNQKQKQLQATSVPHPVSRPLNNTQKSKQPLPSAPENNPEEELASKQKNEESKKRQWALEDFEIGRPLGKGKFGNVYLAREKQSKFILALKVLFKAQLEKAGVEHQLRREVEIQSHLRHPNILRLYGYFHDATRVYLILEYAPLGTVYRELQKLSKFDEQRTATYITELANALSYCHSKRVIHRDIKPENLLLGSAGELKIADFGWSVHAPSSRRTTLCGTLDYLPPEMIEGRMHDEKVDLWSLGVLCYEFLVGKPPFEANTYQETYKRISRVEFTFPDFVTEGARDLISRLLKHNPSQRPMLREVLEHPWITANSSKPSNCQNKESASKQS
Method in brief: as §1

[3] = biological target: T3, BRD4 bromodomain domain I [BRD4(1)] (Homo sapiens, UniProt O60885); assay: BRD4 bromodomain domain 1 inhibition assay (TR-FRET); assay type: binding; details: for inhibition at 10 µM: screening concentration 10 μM
T3 construct: BRD4 bromodomain domain I [BRD4(1)]; purchased Cayman Chemicals
Protocol: The inhibitory activity of test compounds on the bromodomain, BRD4 bromodomain domain I [BRD4(1)], were determined via TR-FRET after a slight modification of the manufacturer's protocol (Cayman Chemicals, Ann Arbor, Mich.). Briefly, compounds were diluted to a 20× ([…]) concentration in DMSO. 100 nL of 20× compounds were then dry stamped into triplicate wells of black, low volume 384 well plates (Aurora Biotechnologies, Carlsbad, Calif.) using the Mosquito liquid handler (TPP Labtech, Melbourn, UK). 20× compounds were then diluted to a 4× (40 μM) concentration in Assay Buffer to result in 2% DMSO content. […] JQ1 at 10 μM or 0.5% DMSO final concentrations were used as the positive and negative controls, respectively, to set the assay window. The fluorescence was read in a time-resolved format on the Biotec Synergy 2 plate reader by exciting the signal at 340 nm and reading emissions at 620 and 670, using a 100 μs delay and 200 μs read window. […] Briefly, TR-FRET ratio values were normalized to the average TR-FRET ratio value given by 10 μM JQ1. […]

[4] = tested on: AMPKa1 or AMPKa2; assay: Probe-based (AX9989) kinase profiling in Jurkat lysate: AMPKa1 or AMPKa2; assay type: binding
Method in brief: as §1

[5] = biological target: T4, TAO2 (Homo sapiens, UniProt Q9UL54); assay: Probe-based (AX9989) kinase profiling in Jurkat lysate: TAO2; assay type: binding; details: read-out: Kinase inhibition % at indicated screening concentration: TAO2; for inhibition at 1 µM: screening concentration 1.0 μM; for inhibition at 0.1 µM: screening concentration 0.1 μM
T4 construct: screened for activity against several kinases in Jurkat cells; endogenous in cells; host or cells: Jurkat cell lysate
T4 sequence (Q9UL54 1-1235): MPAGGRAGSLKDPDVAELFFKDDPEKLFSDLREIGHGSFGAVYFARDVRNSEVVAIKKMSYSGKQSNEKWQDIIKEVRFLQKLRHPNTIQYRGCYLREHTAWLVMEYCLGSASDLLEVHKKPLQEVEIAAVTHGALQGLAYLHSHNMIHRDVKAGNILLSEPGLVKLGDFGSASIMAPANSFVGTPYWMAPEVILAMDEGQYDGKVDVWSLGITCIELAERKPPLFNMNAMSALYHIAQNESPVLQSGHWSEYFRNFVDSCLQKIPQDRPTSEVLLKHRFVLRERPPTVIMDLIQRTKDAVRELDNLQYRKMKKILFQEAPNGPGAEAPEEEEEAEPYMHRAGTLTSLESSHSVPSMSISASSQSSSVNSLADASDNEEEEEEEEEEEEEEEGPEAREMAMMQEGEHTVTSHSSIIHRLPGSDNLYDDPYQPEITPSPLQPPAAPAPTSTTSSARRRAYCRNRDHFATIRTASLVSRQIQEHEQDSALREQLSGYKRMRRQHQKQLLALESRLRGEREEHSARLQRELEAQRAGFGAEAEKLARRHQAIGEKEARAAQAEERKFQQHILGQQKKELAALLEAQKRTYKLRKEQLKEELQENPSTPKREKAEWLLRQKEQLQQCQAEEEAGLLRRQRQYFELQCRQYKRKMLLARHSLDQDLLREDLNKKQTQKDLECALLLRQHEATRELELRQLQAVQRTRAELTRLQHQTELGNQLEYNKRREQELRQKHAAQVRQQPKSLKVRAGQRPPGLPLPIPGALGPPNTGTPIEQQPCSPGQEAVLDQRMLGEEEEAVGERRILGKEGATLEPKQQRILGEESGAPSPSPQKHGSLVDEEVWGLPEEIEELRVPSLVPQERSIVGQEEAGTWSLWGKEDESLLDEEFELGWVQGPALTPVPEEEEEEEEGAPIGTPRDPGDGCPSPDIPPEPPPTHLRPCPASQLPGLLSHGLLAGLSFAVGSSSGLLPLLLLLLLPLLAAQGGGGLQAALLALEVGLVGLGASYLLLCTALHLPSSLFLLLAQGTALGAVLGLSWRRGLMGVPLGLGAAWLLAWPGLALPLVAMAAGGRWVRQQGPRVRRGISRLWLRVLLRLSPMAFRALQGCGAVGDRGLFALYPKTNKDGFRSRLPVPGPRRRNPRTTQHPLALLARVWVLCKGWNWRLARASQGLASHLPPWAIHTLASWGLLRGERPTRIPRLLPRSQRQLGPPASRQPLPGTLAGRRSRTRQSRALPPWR
Method in brief: as §1

[6] = biological target: T5, ERK5 (Homo sapiens, UniProt Q13164); assay: Probe-based (AX9989 acyl phosphate ATP probe) kinase profiling in Jurkat lysate: ERK5; assay type: binding; details: for IC50: calculated from percent inhibition of AX9989 labeling and the screening concentration, Jurkat lysate; for inhibition at 1 µM: screening concentration 1.0 μM; for inhibition at 1 µM / inhibition at 0.1 µM: read-out: Kinase inhibition % at indicated screening concentration: ERK5; for inhibition at 0.1 µM: screening concentration 0.1 μM
T5 construct: screened for activity against several kinases in Jurkat cells; endogenous in cells; host or cells: Jurkat cell lysate
T5 sequence (Q13164 whole entry): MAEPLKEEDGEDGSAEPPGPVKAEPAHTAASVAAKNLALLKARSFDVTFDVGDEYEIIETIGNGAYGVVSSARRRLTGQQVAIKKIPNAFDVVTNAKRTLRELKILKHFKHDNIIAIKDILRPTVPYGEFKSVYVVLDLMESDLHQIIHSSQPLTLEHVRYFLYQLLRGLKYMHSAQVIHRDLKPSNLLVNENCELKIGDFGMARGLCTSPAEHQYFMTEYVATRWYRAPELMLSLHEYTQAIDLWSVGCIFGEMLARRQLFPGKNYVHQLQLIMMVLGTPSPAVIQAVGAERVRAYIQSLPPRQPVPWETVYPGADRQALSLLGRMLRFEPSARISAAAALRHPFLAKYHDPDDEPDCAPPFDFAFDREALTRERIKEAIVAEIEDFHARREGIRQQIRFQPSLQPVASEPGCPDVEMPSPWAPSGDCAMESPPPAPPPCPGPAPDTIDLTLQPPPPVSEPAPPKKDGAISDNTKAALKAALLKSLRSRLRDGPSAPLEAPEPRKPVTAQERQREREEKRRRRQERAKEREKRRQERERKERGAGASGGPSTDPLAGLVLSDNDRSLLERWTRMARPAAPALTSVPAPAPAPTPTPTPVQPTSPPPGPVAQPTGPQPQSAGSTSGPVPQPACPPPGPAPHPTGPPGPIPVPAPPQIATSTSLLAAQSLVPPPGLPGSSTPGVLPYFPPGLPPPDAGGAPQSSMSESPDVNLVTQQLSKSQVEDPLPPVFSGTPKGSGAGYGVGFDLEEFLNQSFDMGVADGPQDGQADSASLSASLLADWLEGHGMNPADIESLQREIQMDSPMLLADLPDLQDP
Method in brief: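 Gel-filtered Jurkat lysate (5 mg/ml, 20 mM MnCl2) preincubated 15 min at room temperature with compound, then labelled with 5 μM AX9989 acyl phosphate ATP probe. Probe-labelled ERK5 active-site peptides quantified by LC/MS after trypsin digestion and streptavidin capture; IC50 calculated from percent inhibition at the screening concentration.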

[7] = tested on: AurB or AurC; assay: Probe-based (AX9989) kinase profiling in Jurkat lysate: AurB or AurC; assay type: binding
Method in brief: as §1

[8] = biological target: T6, JAK1 (Homo sapiens, UniProt P23458); assay: Probe-based (AX9989) kinase profiling in Jurkat lysate: JAK1; assay type: binding; details: read-out: Kinase inhibition % at indicated screening concentration: JAK1; for inhibition at 1 µM: screening concentration 1.0 μM; for inhibition at 0.1 µM: screening concentration 0.1 μM
T6 construct: screened for activity against several kinases in Jurkat cells; endogenous in cells; host or cells: Jurkat cell lysate
T6 sequence (P23458 whole entry): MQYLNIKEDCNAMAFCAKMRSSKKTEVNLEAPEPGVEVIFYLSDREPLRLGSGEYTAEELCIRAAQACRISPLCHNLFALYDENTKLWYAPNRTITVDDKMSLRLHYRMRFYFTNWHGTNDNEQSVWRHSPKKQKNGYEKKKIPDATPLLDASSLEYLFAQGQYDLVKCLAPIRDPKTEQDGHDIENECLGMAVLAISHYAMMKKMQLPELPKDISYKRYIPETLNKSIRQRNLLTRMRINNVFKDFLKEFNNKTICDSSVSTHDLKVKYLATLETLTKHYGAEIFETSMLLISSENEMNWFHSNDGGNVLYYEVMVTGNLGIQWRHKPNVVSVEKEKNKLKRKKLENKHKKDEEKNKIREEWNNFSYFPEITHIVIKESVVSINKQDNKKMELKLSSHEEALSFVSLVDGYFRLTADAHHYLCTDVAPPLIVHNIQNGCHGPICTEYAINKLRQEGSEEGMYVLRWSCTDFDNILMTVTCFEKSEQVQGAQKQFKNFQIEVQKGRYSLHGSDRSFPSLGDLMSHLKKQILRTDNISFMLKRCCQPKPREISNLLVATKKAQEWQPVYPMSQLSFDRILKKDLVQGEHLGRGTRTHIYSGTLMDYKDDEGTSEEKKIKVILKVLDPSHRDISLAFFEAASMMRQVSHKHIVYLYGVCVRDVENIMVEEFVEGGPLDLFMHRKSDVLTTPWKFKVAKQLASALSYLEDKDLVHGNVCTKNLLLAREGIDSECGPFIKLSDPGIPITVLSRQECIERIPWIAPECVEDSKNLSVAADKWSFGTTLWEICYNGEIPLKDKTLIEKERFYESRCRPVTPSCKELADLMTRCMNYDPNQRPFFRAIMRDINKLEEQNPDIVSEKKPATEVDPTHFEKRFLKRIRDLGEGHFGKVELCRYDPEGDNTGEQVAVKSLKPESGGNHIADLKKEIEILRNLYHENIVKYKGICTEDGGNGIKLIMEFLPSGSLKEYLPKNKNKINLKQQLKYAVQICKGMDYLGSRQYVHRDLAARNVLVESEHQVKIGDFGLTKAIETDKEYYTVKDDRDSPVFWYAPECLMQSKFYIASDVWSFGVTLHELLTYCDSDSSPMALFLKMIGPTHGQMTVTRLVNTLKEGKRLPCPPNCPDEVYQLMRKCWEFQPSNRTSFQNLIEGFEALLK
Method in brief: as §1

[9] = tested on: ABL or ARG; assay: Probe-based (AX9989) kinase profiling in Jurkat lysate: ABL or ARG; assay type: binding
Method in brief: as §1

[10] = tested on: human PBMCs; assay: Human PBMC TNF-α response to endotoxin (ELISA); assay type: cell-based; details: 0.1 μg/ml LPS 16 h, read-out: EC50 for the inhibition of the human PBMC TNF-α response to endotoxin, ave. ± S.D.
Method in brief: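 PBMCs at 2e6 cells/ml in RPMI 1640 with 10% charcoal-dextran-treated FBS were pre-treated 1 h at 37 °C with compound (4-point 1:5 dilution from 10 μM). Stimulation with 0.1 μg/ml E. coli 0111:B4 LPS for 16 h; TNF-α measured by ELISA (A450) in 25-fold diluted supernatant.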

Structure (SMILES)	inhibition at 1 µM [1]	inhibition at 1 µM [2]	inhibition at 10 µM [3]	Kinase inhibition % at indicated screening concentration: AMPKa1 or AMPKa2 ([4]; screening concentration 1.0 μM)	inhibition at 1 µM [5]	IC50 [6]	inhibition at 1 µM [6]	Kinase inhibition % at indicated screening concentration: AurB or AurC ([7]; screening concentration 1.0 μM)	inhibition at 1 µM [8]	Kinase inhibition % at indicated screening concentration: ABL or ARG ([9]; screening concentration 1.0 μM)	inhibition at 0.1 µM [1]	inhibition at 0.1 µM [2]	Kinase inhibition % at indicated screening concentration: AMPKa1 or AMPKa2 ([4]; screening concentration 0.1 μM)	inhibition at 0.1 µM [5]	inhibition at 0.1 µM [6]	Kinase inhibition % at indicated screening concentration: AurB or AurC ([7]; screening concentration 0.1 μM)	inhibition at 0.1 µM [8]	Kinase inhibition % at indicated screening concentration: ABL or ARG ([9]; screening concentration 0.1 μM)	IC50 [3]	EC50 [10]
CCOc1cc(C(=O)Nc2ccncc2)ccc1Nc1cc2c(cn1)N(C)C(=O)c1ccccc1N2C [Compound 7]	≤ 35%	≤ 35%	< 70%	E (E is ≦35%)	≤ 35%	> 500 nM	35 to 50%	E (E is ≦35%)	≤ 35%	E (E is ≦35%)										
CCOc1cc(C(=O)N2CCCC(N)C2)ccc1Nc1cc2c(cn1)N(C)C(=O)c1occc1N2C (centres unmarked) [Compound 113]			> 85%			≤ 50 nM					≤ 35%	≤ 35%	E (E is ≦35%)	≤ 35%	> 90%	E (E is ≦35%)	≤ 35%	E (E is ≦35%)		
CCOc1cc(C(=O)N2CCC(NC3CC3)C2)ccc1Nc1cc2c(cn1)N(C)C(=O)c1ccccc1N2C (centres unmarked) [Compound 20]			70 to 85%			≤ 50 nM					≤ 35%	≤ 35%	E (E is ≦35%)	≤ 35%	75 to 90%	E (E is ≦35%)	≤ 35%	E (E is ≦35%)		
COc1c(Nc2cc3c(cn2)N(C)C(=O)c2ccccc2N3C)cccc1C(=O)O [Compound 9]	≤ 35%	≤ 35%	< 70%	E (E is ≦35%)	≤ 35%	> 500 nM	≤ 35%	E (E is ≦35%)	≤ 35%	E (E is ≦35%)										
CCOc1cc(C(=O)N2CC[C@@H](NC)C2)ccc1Nc1cc2c(cn1)N(C)C(=O)c1ccccc1N2C [Compound 26]			> 85%			≤ 50 nM					≤ 35%	≤ 35%	E (E is ≦35%)	≤ 35%	75 to 90%	E (E is ≦35%)	≤ 35%	E (E is ≦35%)		
CCN(CC)CCNC(=O)c1cccc(Nc2cc3c(cn2)N(C)C(=O)c2ccccc2N3C)c1OC [Compound 29]	≤ 35%	≤ 35%	< 70%	E (E is ≦35%)	≤ 35%	101 to 500 nM	50 to 75%	E (E is ≦35%)	≤ 35%	E (E is ≦35%)										
COc1c(Nc2cc3c(cn2)N(C)C(=O)c2ccccc2N3C)cccc1C(=O)N1CCNCC1 [Compound 78]	≤ 35%	≤ 35%	70 to 85%	E (E is ≦35%)	≤ 35%	> 500 nM	50 to 75%	E (E is ≦35%)	≤ 35%	E (E is ≦35%)										
CCOc1cc(C(=O)NCCN(C)C)ccc1Nc1cc2c(cn1)N(C)C(=O)c1ccccc1N2C [Compound 1]			70 to 85%			101 to 500 nM	75 to 90%													
CN1C(=O)c2ccccc2S(=O)(=O)c2cc(N[C@H]3CC[C@H](O)CC3)ncc21 [Compound T127]																			> 5000 nM	4600 nM
CCOc1cc(C(=O)N2CC[C@H](NC3CCN(C)CC3)C2)ccc1Nc1cc2c(cn1)N(C)C(=O)c1ccccc1N2C [Compound T61]			> 85%																	420 nM
CCOc1cc(C(=O)NC2CC2)ccc1Nc1cc2c(cn1)N(C)C(=O)c1ccccc1N2C [Compound 2]			< 70%			> 500 nM	≤ 35%													
